Data taken from the supplement of paper PMC11208160.

test: recombinant UMI read abundance after kanamycin selection (control-corrected) (log10(CPM+1)); higher = more efficient recombination; extreme values may be limits of the assay; sequences stand for … in AGTGCAGAGAAAATCGGCCAGTTTTCTCTGCCTGCAGTCCGCATGCCGTGGGACCCCTTGGGTTCTAACCTGTTGCCTAGATTTATGCAGCGGACTGCCTTTCTCCCAAAGTGATAAACCGG…AGGTTGGTTTCACT; site = the 11-nt donor
Method in brief: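 Values are reported as log10(CPM+1), obtained by converting sequencing counts to CPM, averaging replicates and scaling by control-derived factors. The counts came from recombinant UMIs amplified by PCR across the donor–target junction. These UMIs came from a pooled Escherichia coli screen of donor and donor-binding-loop pairs for the IS621 bridge recombinase, plated with IPTG (0.07 mM) plus kanamycin or left unselected, in two replicates each.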
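Note: IS621 bridge recombinase in Escherichia coli cells against a fixed T5 target plasmid.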

Row | Sequence | recombinant UMI read abundance (log10)
1 | CGTTTGGCATGGACCGGTTTTCCCGGTAATCCGTATTTGCC (site CGTTTGGCTTG) | 0
2 | CTAATAGCATGGACCGGTTTTCCCGGTAATCCGTATTTGAT (site CTAATAGCTAT) | 2.21
3 | CTAATATCATGGACCGGTTTTCCCGGTAATCCGTATTTGTC (site CTAATATCTGA) | 2.49
4 | CTAATATCATGGACCGGTTTTCCCGGTAATCCGTATTTGTC (site CTAGTATCTGT) | 1.1
5 | CTAATCTCATGGACCGGTTTTCCCGGTAATCCGTATTTGAC (site CTAATCTCTGT) | 2.44
6 | CTAATCTCATGGACCGGTTTTCCCGGTAATCCGTATTTGAC (site CTAGTATCTGT) | 0
7 | CTAATTACATGGACCGGTTTTCCCGGTAATCCGTATTTGCA (site CTAATTACTTG) | 2.07
8 | CTACAAACATGGACCGGTTTTCCCGGTAATCCGTATTTGGA (site CTACAAACTTC) | 1.28
9 | CTACAAACATGGACCGGTTTTCCCGGTAATCCGTATTTGGA (site CTACCAACTTC) | 0.0174
10 | CTACAAACATGGACCGGTTTTCCCGGTAATCCGTATTTGGA (site CTACGAACTTC) | 0.0102
11 | CTACAAACATGGACCGGTTTTCCCGGTAATCCGTATTTGGA (site CTACTAACTTC) | 0.313
12 | CTACCATCATGGACCGGTTTTCCCGGTAATCCGTATTTGGT (site CTACCATCTAC) | 0.00462
13 | CTACGAACATGGACCGGTTTTCCCGGTAATCCGTATTTGGA (site CTACAAACTTC) | 1.46
14 | CTACGAACATGGACCGGTTTTCCCGGTAATCCGTATTTGGA (site CTACCAACTTC) | 0.0142
15 | CTACGAACATGGACCGGTTTTCCCGGTAATCCGTATTTGGA (site CTACGAACTTC) | 1.91
16 | CTACGAACATGGACCGGTTTTCCCGGTAATCCGTATTTGGA (site CTACTAACTTC) | 0.113
17 | CTACTAACATGGACCGGTTTTCCCGGTAATCCGTATTTGGC (site CTACTAACTAC) | 0.561
18 | CTACTAACATGGACCGGTTTTCCCGGTAATCCGTATTTGGC (site CTACTAACTCC) | 0.31
19 | CTACTAACATGGACCGGTTTTCCCGGTAATCCGTATTTGGC (site CTACTAACTGC) | 2.51

Row | Sequence | recombinant UMI read abundance (log10)
20 | CTACTAACATGGACCGGTTTTCCCGGTAATCCGTATTTGGC (site CTACTAACTTC) | 1.31
21 | CTACTAACATGGACCGGTTTTCCCGGTAATCCGTATTTGGG (site CTACTAACTAC) | 0.0214
22 | CTACTAACATGGACCGGTTTTCCCGGTAATCCGTATTTGGG (site CTACTAACTCC) | 0.54
23 | CTACTAACATGGACCGGTTTTCCCGGTAATCCGTATTTGGG (site CTACTAACTGC) | 0.0111
24 | CTACTAACATGGACCGGTTTTCCCGGTAATCCGTATTTGGG (site CTACTAACTTC) | 0.0179
25 | CTACTATCATGGACCGGTTTTCCCGGTAATCCGTATTTGCC (site CTACTATCTGG) | 2.95
26 | CTACTATCATGGACCGGTTTTCCCGGTAATCCGTATTTGCC (site CTAGTATCTGT) | 0
27 | CTACTATCATGGACCGGTTTTCCCGGTAATCCGTATTTGGA (site CTACTAACTTC) | 0.127
28 | CTACTATCATGGACCGGTTTTCCCGGTAATCCGTATTTGGA (site CTACTACCTTC) | 0.00618
29 | CTACTATCATGGACCGGTTTTCCCGGTAATCCGTATTTGGA (site CTACTAGCTTC) | 0.0148
30 | CTACTATCATGGACCGGTTTTCCCGGTAATCCGTATTTGGA (site CTACTATCTTC) | 2.71
31 | CTAGAATCATGGACCGGTTTTCCCGGTAATCCGTATTTGTC (site CTAGAATCTGA) | 2.71
32 | CTAGAATCATGGACCGGTTTTCCCGGTAATCCGTATTTGTC (site CTAGTATCTGT) | 0.307
33 | CTAGACTCATGGACCGGTTTTCCCGGTAATCCGTATTTGAC (site CTAGACTCTGT) | 3.29
34 | CTAGACTCATGGACCGGTTTTCCCGGTAATCCGTATTTGAC (site CTAGTATCTGT) | 0
35 | CTAGACTCATGGACCGGTTTTCCCGGTAATCCGTATTTGCT (site CTAGACTCTAG) | 3.32
36 | CTAGAGACATGGACCGGTTTTCCCGGTAATCCGTATTTGTC (site CTAGAGACTGA) | 2.28
37 | CTAGCATCATGGACCGGTTTTCCCGGTAATCCGTATTTGAC (site CTAGAATCTGT) | 0.337
38 | CTAGCATCATGGACCGGTTTTCCCGGTAATCCGTATTTGAC (site CTAGCATCTGT) | 3.04

Row | Sequence | recombinant UMI read abundance (log10)
39 | CTAGCATCATGGACCGGTTTTCCCGGTAATCCGTATTTGAC (site CTAGGATCTGT) | 0.773
40 | CTAGCATCATGGACCGGTTTTCCCGGTAATCCGTATTTGAC (site CTAGTATCTGT) | 2.13
41 | CTAGCGACATGGACCGGTTTTCCCGGTAATCCGTATTTGCC (site CTAGCGACTGG) | 3.09
42 | CTAGCTTCATGGACCGGTTTTCCCGGTAATCCGTATTTGAC (site CTAGCTTCTGT) | 2.18
43 | CTAGCTTCATGGACCGGTTTTCCCGGTAATCCGTATTTGAC (site CTAGTATCTGT) | 0
44 | CTAGGACCATGGACCGGTTTTCCCGGTAATCCGTATTTGAC (site CTAGGACCTGT) | 0
45 | CTAGGACCATGGACCGGTTTTCCCGGTAATCCGTATTTGAC (site CTAGTATCTGT) | 0.00955
46 | CTAGGATCATGGACCGGTTTTCCCGGTAATCCGTATTTGAT (site CTAGGATCTAT) | 1.95
47 | CTAGGATCATGGACCGGTTTTCCCGGTAATCCGTATTTGAT (site CTAGTATCTGT) | 0.00727
48 | CTAGGATCATGGACCGGTTTTCCCGGTAATCCGTATTTGGC (site CTAGGATCTGC) | 2.55
49 | CTAGGATCATGGACCGGTTTTCCCGGTAATCCGTATTTGGC (site CTAGTATCTGT) | 0.606
50 | CTAGGGTCATGGACCGGTTTTCCCGGTAATCCGTATTTGAC (site CTAGGGTCTGT) | 1.41
51 | CTAGGGTCATGGACCGGTTTTCCCGGTAATCCGTATTTGAC (site CTAGTATCTGT) | 1.43
52 | CTAGGTTCATGGACCGGTTTTCCCGGTAATCCGTATTTGCG (site CTAGGTTCTCG) | 2.47
53 | CTAGTAGCATGGACCGGTTTTCCCGGTAATCCGTATTTGAA (site CTAGTAGCTTT) | 2.15
54 | CTAGTAGCATGGACCGGTTTTCCCGGTAATCCGTATTTGAA (site CTAGTATCTGT) | 0
55 | CTAGTATCATGGACCGGTTTTCCCGGTAATCCGTATTTGAC (site ACAGTATCTGT) | 0.654
56 | CTAGTATCATGGACCGGTTTTCCCGGTAATCCGTATTTGAC (site ATACTATCTGT) | 0.00668
57 | CTAGTATCATGGACCGGTTTTCCCGGTAATCCGTATTTGAC (site ATAGCATCTGT) | 0
